Reference: EP2777394A1, “Agricultural adjuvant composition and process for its obtainment” (SC Teso Spec SRL, priority 2012, dated 2014)

Columns and labels:
Assay type in all cases: in vivo
[1] = test system: winter wheat (Triticum aestivum L.), cultivar Capo; experiment: Selenium biofortification of wheat grains by foliar sodium selenite, with or without adjuvant A1.2 (field experiment); details: 300 l/ha; for Selenium content in the wheat grains (mcg/kg): applied at GS31; for Yield (kg/ha): yield with 86% dry matter
Excerpt: Example 7. On the experimental field from Fundulea was done also an experiment in order to establish the effect of adjuvant A1.2 on the biofortification treatment with sodium selenite applied as foliar fertilizers on wheat. Se (IV) from the sodium selenite is a selenium species which are not translocated from the radicular system into the foliar one through xylem (Zhu et al., 2009, Trends Plant Sci. 14:436-442), thus an eventually biofortification of the wheat yield resulted from the treatment with selenite is the result of the selenite absorbed through cuticle and not of that absorbed by radicular system after leakage on soil. The soil on which was done the experiment has the characteristics presented in the above tab. 6, and the total selenium content (HF + HNO3 + HCl) is 0.197 mg/kg.
The experiment was done of experimental plots of 25 m^2, with winter wheat (Triticum aestivum L.), cultivar Capo, cultivated in similar conditions with those already presented in Example 6 regarding the agrotechnics, base fertilization before seeding and crop protection. The experiment was done in random blocks in a Latin square, 4 treatments in 4 repetitions. The 4 treatments were: • V1 - control, treated with water, • V2 - sprayed with a solution of sodium selenite pentahidrate, Na2SeO3.5 H2O, 0.0111%, equiv. 10 g Se/ha for a spraying norm of 300 l/ha; • V3 - sprayed with a solution of sodium selenite pentahidrate, Na2SeO3.5 H2O, 0.0222%, equiv. 20 g Se/ha for a spraying norm of 300 l/ha; • V4 - sprayed with a solution of sodium selenite pentahidrate, Na2SeO3.5 H2O, 0.0111 %, equiv. 10 g Se/ha for a spraying norm of 300 l/ha and 0.5% spraying adjuvant A1.2 Ex.2, equivalent to a dose of 1.5 kg/ha.
Application of the solutions was done with a backpack sprayer SG10 (Stihl AG, Waiblingen, Germany), by spraying from 40 cm, with a spraying pressure set-up to 275 kPa, using a nozzle with flat jet and low drift (TeeJett® flat-fan TT11002 model, Spraying Systems Co., Wheaton, IL, USA). The treatments were applied during the growth stages GS31 (5th April 2012). On the end of the vegetation season each repetition was separately harvested, the realized production being expressed in kg/ha with 86% dry matter. In the wheat grain selenium was determined, by atomic absorption spectrophotometry with hydride generation (Tinggi et al., 1992, J. Food Comp. Anal. 5, 269-280). The date were analyzed by application of the linear general model, to determine the average values and the significance differences at a probability level of 5% (Statistica 10, StatSoft, Tulsa, OK, US). Tab. 8. Influence of the adjuvant A1.2 done according to the invention on the biofortification treatment of wheat grains (cv. Capo) with selenium.

[2] = test system: common cocklebur (Xanthium strumarium); experiment: Greenhouse test of adjuvants on nicosulfuron efficacy, common cocklebur; details: nicosulfuron 50 g/ha, without adjuvant, Trend 90 0,1% or soybean oil methylate 1%
Description: (§1) Example 8. The basic adjuvant A1.3 was tested on greenhouse conditions in order to verify its effect on the performance increase of nicosulfuron, herbicide representative for the category of weakly acid herbicides from the sulfonylurea class, which solubility in water is increased on high pH. The used test plants were common cocklebur (Xanthium strumarium), dicotyledonous weed, and large crabgrass (Digitaria sanguinalis), monocotyledonous weed. The common cocklebur was sown on approx. 2 cm deep, in plastic pots of 15 cm diameter, and after emergence was thinned to only 2 plants. The large crabgrass was planted in the same type of plastic pots, at 1 cm deep, and after emergence was thinned to a cluster of around 15 plants. The pots contain a synthetic grown substrate enriched with nutrients for the first week of plant growth ([…] Professional Plus, Canna International BV, Oosterhout, Netherlands), and consequently were not applied fertilizers. […] At three weeks after the treatment it was determined the fresh weight of plants on each repetition by weighting and was estimated the phytotoxicity, using a scale from 0% (without visible symptoms) to 100% (plant completely destroyed). […]

[3] = test system: large crabgrass (Digitaria sanguinalis); experiment: Greenhouse test of adjuvants on nicosulfuron efficacy, large crabgrass; details: nicosulfuron 50 g/ha, without adjuvant, Trend 90 0,1% or soybean oil methylate 1%
Description: as §1

[4] = test system: leafminers flies, Liriomyza trifolii (Burgess); experiment: Field test of spinosad with or without adjuvant A3 against leafminer larvae on muskmelon; details: per sampled leaf, 3 days after treatment, acetamipirid 0.025%, spinosad 0.05%, adjuvant A3 0.4%
Description: Example 10. The effect of adjuvant A3, obtained according to Example 5, was tested to determine whether its addition improve the activity of spinosad against leafminers flies, Liriomyza trifolii (Burgess). Spinosad is a metabolite produced by biosynthetic process by the actinomycetes Saccharopolyspora spinosa, and provides excellent crop protection with a relatively low toxicity to non-target organisms, including many beneficial insects. For that reason spinosad is accepted on organic farming systems. […] Addition of the spraying adjuvant increase the efficacy of spinosad based insecticide in controlling leafminers larvae (Larson, 1997, Arthrop. Manag. Test. 22:415-416).
The experiment was done on the Fundulea experimental field, which characteristics were already presented in Example 6. The muskmelon (Cucumis melo L., cv. Charentais) experimental plots were established on 19th of April, 2012, using 25 days old transplants, on a density equivalent to 12.000 transplants per ha. The experimental filed where experiment was plotted was previously cultivated with corn and was fertilized with 200 kg/ha equivalent complex fertilizer NPK 15:15:15 (Azomure ? ), on beginning of March. Herbicidation was done by application on the whole surface of a dose of 4 l/ha Stomp 330 EC, sprayed in a mixture with 450 l water per ha, 10 days before transplantation, and incorporated in soil with a by harrowing with a disc harrow.
Plots of 20 m^2 were made with edges of two untreated rows, in random blocks, with 4 repetitions on each treatment. Application of treatments were done with a backpack sprayer SG10 (Stihl AG, Waiblingen, Germany), by spraying from 40 cm, with a spraying pressure set-up to 275 kPa, using a nozzle with flat jet and low drift (TeeJett® flat-fan TT11002 model, Spraying Systems Co., Wheaton, IL, USA). Were applied […], one in the phenophase of 3...4 leaves and in the phenophase 6...8 leaves, as a second treatment. In phenophase 3...4 leaves, one day after the treatment with insecticide, was applied also a treatment with Previcur 607 SL (propamocarb 607 g/l) for controlling the downy mildew (Pseudoperonospora cubensis), on the whole area of the experiment. The experimental treatments were: • V1 - control, untreated for Liriomyza trifolii; • V2 - acetamipirid 0.025% (Mospilan 20 SG, 200 g/kg acetamipirid, Nippon Soda Company, Tokio, Japonia), equivalent 0.1 kg/ha in a spraying norm of 400 l/ha, considered as standard for treatment of leafminers flies larvae because is a systemic insecticide; • V3 - spinosad 0.05% (Laser 240 SC, 240 g/l spinosad, Dow AgroSciences, Indianapolis, USA), equivalent 0.2 kg/ha at a spraying norm of 400 l/ha; • V4 - spinosad 0.05% (Laser 240 SC, 240 g/l spinosad, Dow AgroSciences, Indianapolis, USA), equivalent 0.2 kg/ha at a spraying norm of 400 l/ha + adjuvant A3, according to Example 5, 0.4%, equiv. to 1.6 kg at a spraying norm of 400 l/ha.
The impact of each treatment on leafminer larvae mortality was estimated by counting the number of live and dead / paralyzed larvae, and also of the empty and total mines per each sampled leaf. A total of 10 leaves per experimental plot were collected at 3 days after treatment and examined in the laboratory for presence of mines in leaves and larvae status in the mines. The data were processed by analysis of variance (Statistica 10, StatSoft). Tab. 11.The influence of spray adjuvant A3 on the efficacy of spinosad in controlling the leafminers larvae on muskmelon.

[5] = test system: Tomato plants (Lycopersicum esculentum cv. Cristal F1); experiment: Protection of tomato plants against water stress by foliar glycine-betaine, with or without adjuvant A2 (greenhouse)
Description: Example 9. It was tested the efficacy of adjuvant A2, obtained according to Ex.4 on the performances of glycine-betaine, compound with an osmoprotectant action, regarding the protection of tomato plants against water stress. Glycine - betaine presents a molecule with quaternary nitrogen, strongly polar, with a reduced penetrability on the hydrophobic plant cuticle.
Tomato plants (Lycopersicum esculentum cv. Cristal F1), transplants of 60 days, were re-potted in vegetation pots of 25 cm dia. and 50 cm height, on which was introduced a synthetic grown substrate enriched with nutrients for the first week of plant growth (Canna Terra Professional Plus, Canna International BV). The vegetation pots were maintained in greenhouse conditions, at 22±2°C during the day and 17±2°C during the night, with a photoperiod of 12 hours, supplemented with light with an intensity of 160 µE/m^2/s, from a metal halide lamp, when the light intensity was below 500 µE/m^2/s. […] The grown substrate contained initial nutrient reserves, thus the plants were fertilized only one time, at 28 days after transplantation, by the application of 100 ml of nutritive solution 1 g/l of fertilizer 20 - 8 - 20 (N-P2O5-K2O, Eurofertil, TimacAgro Romania). The experiment was organized in a random bloc with 4 repetitions for each treatment, each repetition including 5 plants. It was used purified glycine-betaine (99%, Sigma Aldrich, St. Louis, Mo, US). The experimental treatments included also controls, sprayed only with water, water stress control and unstressed control. These experimental treatments were: • V1 - control unstressed, sprayed with water; 2 treatments x 2 ml per plant, equivalent 100 l/ha; • V2 - control water stressed, sprayed with water; 2 treatments x 2 ml per plant, equivalent 100 l/ha; • V3 - water stressed, sprayed with glycine-betaine; 2 treatments x 2 ml 5 mM per plant, equivalent 58,5 g in 100l/ha; […]; […]; • V5 - water stressed, sprayed with glycine -betaine and adjuvant, 2 treatments x 2 ml solution 5 mM betaine + 1% adjuvant A2 per plant, equivalent 58,5 g betaine and 1 kg adjuvant A2 in 100l/ha.
Treatments were applied in the 2nd and 29th day after transplantation, by spraying each plant with the help of a glass atomizer with metal top and plastisol bulb (model 15-RD, DeVilbiss Healthcare, Somerset, PA, USA). The unstressed control was irrigated once every five day at 100% field capacity, and the water stressed plants were irrigated each two weeks at 100% field capacity. […] The data were processed by analysis of variance (Statistica 10, StatSoft).

[6] = fresh weight three weeks after treatment
[7] = three weeks after treatment, scale 0-100%
[8] = V3 water stressed, 2x 5 mM equiv. 58,5 g in 100 l/ha
[9] = V3 water stressed, 2x 5 mM equiv. 58,5 g in 100 l/ha, 8 weeks after transplantation

| Compound | Dead larvae ([4]; First treatment) | Empty mines ([4]; First treatment) | Mines total ([4]; First treatment) | Mines with live larvae ([4]; First treatment) | Dead larvae ([4]; Second treatment) | Empty mines ([4]; Second treatment) | Mines total ([4]; Second treatment) | Mines with live larvae ([4]; Second treatment) | other results |
| --- | --- | --- | --- | --- | --- | --- | --- | --- | --- |
| O=[Se](O)O [Na2SeO3.5 H2O, sodium selenite pentahidrate] |  |  |  |  |  |  |  |  | Selenium content in the wheat grains (mcg/kg) ([1]; equiv. 10 g Se/ha): 105b mcg/kg; Yield (kg/ha) ([1]; equiv. 10 g Se/ha): 4958a kg/ha; Selenium content in the wheat grains (mcg/kg) ([1]; equiv. 20 g Se/ha): 142a mcg/kg; Yield (kg/ha) ([1]; equiv. 20 g Se/ha): 4549b kg/ha |
| COc1cc(OC)nc(NC(=O)NS(=O)(=O)c2ncccc2C(=O)N(C)C)n1 [nicosulfuron] |  |  |  |  |  |  |  |  | Mass reduction (% control) [2, 6]: 59c % control; Phytotoxicity (%) [2, 7]: 33c %; Mass reduction (% control) [3, 6]: 52c % control; Phytotoxicity (%) [3, 7]: 40c % |
| C/C(=N\C#N)N(C)Cc1ccc(Cl)nc1 [Acetamipirid, acetamipirid] | 0.1c | 0c | 0.4a | 0.1c | 0.3c | 0b | 0.2a | 0b |  |
| spinosad | 1.8b | 3.3b | 8.2b | 1.2b | 3.1a | 2.7a | 6.8b | 0.3a |  |
| C[N+](C)(C)CC(=O)O [glycine-betaine] |  |  |  |  |  |  |  |  | Leaves surfaces (mm^2) [5, 8]: 587.58±4.92ab mm^2; Number of Leaves [5, 8]: 28.00±2.1b; Plant height (cm) [5, 9]: 47.30±3.42c cm; Root length (cm) [5, 9]: 45.50±2.39b cm; Average yield** (g ripened fruits / plant) ([5]; V3 water stressed, 2x 5 mM equiv. 58,5 g in 100 l/ha, production for 30 days cycle of flowering - fructification): 223±28.2b g ripened fruits / plant; Leaves surfaces (mm^2) ([5]; V4 water stressed, 2x 5 mM equiv. 117 g in 100 l/ha): 663.16±5.84a mm^2; Root length (cm) ([5]; V4 water stressed, 2x 5 mM equiv. 117 g in 100 l/ha, 8 weeks after transplantation): 54.80±1.88b cm |
